Reference: PubChem BioAssay AID1963964 (Molecular Pharmacology Branch, DTP, NCI, 2024)

Tested on: 997726-040-R-J2-PDC tumor spheroids, viability
Test: Anticancer human tumor 997726-040-R-J2-PDC patient-derived squamous cell lung carcinoma cell line growth inhibition [PI3K]
Settings: spheroids with HUVEC and MSC; for IC50: curve of first compound; for viability, T/C: stronger effect = lower value
Outline: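 High-throughput combination screen: PI3K inhibitors crossed with targeted small molecules on complex spheroids of tumor cells, HUVEC and MSCs at 37 degrees C, 5% CO2. Top concentration was at or near clinical Cmax (otherwise 10 microM), with half-log decrements.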

[1] = second compound 0.00316 µM, first compound 0.0316 µM
[2] = second compound 0.00316 µM, first compound 0.1 µM
[3] = second compound 0.01 µM, first compound 0.0316 µM
[4] = second compound 0.01 µM, first compound 0.1 µM
[5] = second compound 0.0316 µM, first compound 0.0316 µM
[6] = second compound 0.0316 µM, first compound 0.1 µM
[7] = second compound 0.1 µM, first compound 0.0316 µM
[8] = second compound 0.1 µM, first compound 0.1 µM
[9] = second compound 0.316 µM, first compound 0.0316 µM
[10] = second compound 0.316 µM, first compound 0.1 µM
[11] = second compound 1 µM, first compound 0.0316 µM
[12] = second compound 1 µM, first compound 0.1 µM
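Note: spheroids exposed to compounds for seven days before readout.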

Compound `C[C@@H](NC(=O)c1ncnc(N)c1Cl)c1ncc(C(=O)Nc2cc(C(F)(F)F)c(Cl)cn2)s1` + CC(Nc1ccc2c(c1)OCCn1cc(N3C(=O)OCC3C(F)F)nc1-2)C(N)=O has an IC50 (second compound 0.00316 µM) greater than 10 µM, an IC50 (second compound 0.01 µM) greater than 10 µM and an IC50 (second compound 0.0316 µM) of 6.26 µM. It also gave an IC50 (second compound 0.1 µM) of 4.17 µM, an IC50 (second compound 0.316 µM) of less than 0.0316 µM and an IC50 (second compound 1 µM) of less than 0.0316 µM. It also gave a viability, T/C [1] of 92.1%, a viability, T/C [2] of 122% and a viability, T/C (second compound 0.00316 µM, first compound 0.316 µM) of 104%. It also gave a viability, T/C (second compound 0.00316 µM, first compound 1 µM) of 100%, a viability, T/C (second compound 0.00316 µM, first compound 3.16 µM) of 85.3% and a viability, T/C (second compound 0.00316 µM, first compound 10 µM) of 60.4%. It also gave a viability, T/C [3] of 89.5%, a viability, T/C [4] of 95.2% and a viability, T/C (second compound 0.01 µM, first compound 0.316 µM) of 93.5%. The viability, T/C (second compound 0.01 µM, first compound 1 µM) was 93.7%, the viability, T/C (second compound 0.01 µM, first compound 3.16 µM) was 80.7% and the viability, T/C (second compound 0.01 µM, first compound 10 µM) was 58.3%. It also gave a viability, T/C [5] of 67%, a viability, T/C [6] of 80.4% and a viability, T/C (second compound 0.0316 µM, first compound 0.316 µM) of 66.1%. The viability, T/C (second compound 0.0316 µM, first compound 1 µM) was 61.9%, the viability, T/C (second compound 0.0316 µM, first compound 3.16 µM) was 57.9% and the viability, T/C (second compound 0.0316 µM, first compound 10 µM) was 45.3%. It also gave a viability, T/C [7] of 55%, a viability, T/C [8] of 53.7% and a viability, T/C (second compound 0.1 µM, first compound 0.316 µM) of 58.3%. It also gave a viability, T/C (second compound 0.1 µM, first compound 1 µM) of 58.3%, a viability, T/C (second compound 0.1 µM, first compound 3.16 µM) of 51.8% and a viability, T/C (second compound 0.1 µM, first compound 10 µM) of 40.5%. It also gave a viability, T/C [9] of 42.3%, a viability, T/C [10] of 39.3% and a viability, T/C (second compound 0.316 µM, first compound 0.316 µM) of 37.1%. It also gave a viability, T/C (second compound 0.316 µM, first compound 1 µM) of 41%, a viability, T/C (second compound 0.316 µM, first compound 3.16 µM) of 39.2% and a viability, T/C (second compound 0.316 µM, first compound 10 µM) of 30.7%. It also gave a viability, T/C [11] of 34%, a viability, T/C [12] of 33.8% and a viability, T/C (second compound 1 µM, first compound 0.316 µM) of 33.6%. For the same compound, the viability, T/C (second compound 1 µM, first compound 1 µM) was 35.5%, the viability, T/C (second compound 1 µM, first compound 3.16 µM) was 33.6% and the viability, T/C (second compound 1 µM, first compound 10 µM) was 24.1%.
Work on `Cn1ncnc1[C@H]1c2n[nH]c(=O)c3cc(F)cc(c23)N[C@@H]1c1ccc(F)cc1` + CC(Nc1ccc2c(c1)OCCn1cc(N3C(=O)OCC3C(F)F)nc1-2)C(N)=O yielded an IC50 (second compound 0.00316 µM) greater than 0.1 µM, an IC50 (second compound 0.01 µM) greater than 0.1 µM and an IC50 (second compound 0.0316 µM) greater than 0.1 µM. For the same compound, the IC50 (second compound 0.1 µM) was less than 0.000316 µM, the IC50 (second compound 0.316 µM) was less than 0.000316 µM and the IC50 (second compound 1 µM) was less than 0.000316 µM. It also gave a viability, T/C (second compound 0.00316 µM, first compound 0.000316 µM) of 84.4%, a viability, T/C (second compound 0.00316 µM, first compound 0.001 µM) of 99.1% and a viability, T/C (second compound 0.00316 µM, first compound 0.00316 µM) of 95.7%. The viability, T/C (second compound 0.00316 µM, first compound 0.01 µM) was 87.5%, the viability, T/C [1] was 99.7% and the viability, T/C [2] was 89.7%. For the same compound, the viability, T/C (second compound 0.01 µM, first compound 0.000316 µM) was 89.6%, the viability, T/C (second compound 0.01 µM, first compound 0.001 µM) was 92.4% and the viability, T/C (second compound 0.01 µM, first compound 0.00316 µM) was 75.9%. The viability, T/C (second compound 0.01 µM, first compound 0.01 µM) was 71.4%, the viability, T/C [3] was 84.3% and the viability, T/C [4] was 75.6%. It also gave a viability, T/C (second compound 0.0316 µM, first compound 0.000316 µM) of 63.2%, a viability, T/C (second compound 0.0316 µM, first compound 0.001 µM) of 72.9% and a viability, T/C (second compound 0.0316 µM, first compound 0.00316 µM) of 66.2%. For the same compound, the viability, T/C (second compound 0.0316 µM, first compound 0.01 µM) was 71.5%, the viability, T/C [5] was 70.2% and the viability, T/C [6] was 60.2%. The viability, T/C (second compound 0.1 µM, first compound 0.000316 µM) was 49.4%, the viability, T/C (second compound 0.1 µM, first compound 0.001 µM) was 39.8% and the viability, T/C (second compound 0.1 µM, first compound 0.00316 µM) was 43.6%. The viability, T/C (second compound 0.1 µM, first compound 0.01 µM) was 45.4%, the viability, T/C [7] was 41.8% and the viability, T/C [8] was 39%. It also gave a viability, T/C (second compound 0.316 µM, first compound 0.000316 µM) of 31.2%, a viability, T/C (second compound 0.316 µM, first compound 0.001 µM) of 36% and a viability, T/C (second compound 0.316 µM, first compound 0.00316 µM) of 32.4%. It also gave a viability, T/C (second compound 0.316 µM, first compound 0.01 µM) of 32.4%, a viability, T/C [9] of 33.4% and a viability, T/C [10] of 30.9%. The viability, T/C (second compound 1 µM, first compound 0.000316 µM) was 27.5%, the viability, T/C (second compound 1 µM, first compound 0.001 µM) was 26.7% and the viability, T/C (second compound 1 µM, first compound 0.00316 µM) was 26.6%. For the same compound, the viability, T/C (second compound 1 µM, first compound 0.01 µM) was 28.9%, the viability, T/C [11] was 31.1% and the viability, T/C [12] was 28.8%.
